Measurements from BindingDB's records for patent US20230312550 (Astrazeneca, 2023).

These molecules were tested against T1, Prolyl endopeptidase FAP (Homo sapiens, UniProt Q12884) (assay: hFAP Binding Assay). Conditions: not given.
T1 sequence (Q12884 whole entry): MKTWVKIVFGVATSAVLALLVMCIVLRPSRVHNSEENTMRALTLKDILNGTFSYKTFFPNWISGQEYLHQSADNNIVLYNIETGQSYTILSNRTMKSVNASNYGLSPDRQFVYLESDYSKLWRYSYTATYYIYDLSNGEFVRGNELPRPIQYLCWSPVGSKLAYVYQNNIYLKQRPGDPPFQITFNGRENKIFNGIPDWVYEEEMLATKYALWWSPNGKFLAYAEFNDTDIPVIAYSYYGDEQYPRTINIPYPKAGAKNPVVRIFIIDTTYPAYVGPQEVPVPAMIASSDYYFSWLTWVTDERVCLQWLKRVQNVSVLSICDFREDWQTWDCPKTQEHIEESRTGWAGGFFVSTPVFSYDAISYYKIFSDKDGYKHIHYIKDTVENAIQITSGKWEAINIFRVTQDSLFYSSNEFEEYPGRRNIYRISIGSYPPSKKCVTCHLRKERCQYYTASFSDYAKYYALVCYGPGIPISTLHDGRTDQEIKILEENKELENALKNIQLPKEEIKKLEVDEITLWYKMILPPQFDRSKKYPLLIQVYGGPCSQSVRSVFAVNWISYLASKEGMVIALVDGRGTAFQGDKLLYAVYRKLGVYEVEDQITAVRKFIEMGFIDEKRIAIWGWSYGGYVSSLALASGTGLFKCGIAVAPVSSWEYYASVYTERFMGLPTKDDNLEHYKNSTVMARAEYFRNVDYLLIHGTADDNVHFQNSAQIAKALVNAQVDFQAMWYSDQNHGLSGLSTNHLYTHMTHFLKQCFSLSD

SMILES | koff [s⁻¹]
N#C[C@@H]1CSCN1C(=O)CNC(=O)c1ccnc2ccc(N3CC4(CCCC4(F)F)C3)cc12 [US20230312550, Example 141] | 7.8e-05
N#C[C@@H]1CSCN1C(=O)CNC(=O)c1ccnc2ccc(N3CC(CCC(F)(F)F)C3)cc12 [US20230312550, Example 142] | 5.5e-05
N#C[C@@H]1CSCN1C(=O)CNC(=O)c1ccnc2ccc(N3CC(C4CC4)C3)cc12 [US20230312550, Example 145] | 0.00013
CC1CC2(C1)CN(c1ccc3nccc(C(=O)NCC(=O)N4CSC[C@H]4C#N)c3c1)C2 [US20230312550, Example 149] | 3.9e-05
N#C[C@@H]1CSCN1C(=O)CNC(=O)c1ccnc2ccc(N3CC4(CC(C(F)(F)F)C4)C3)cc12 [US20230312550, Example 150] | 4.3e-05
N#C[C@@H]1CSCN1C(=O)CNC(=O)c1ccnc2ccc(N3CC4(CC(F)C4)C3)cc12 [US20230312550, Example 155] | 5e-05
CO[C@@H]1CCN(c2ccc3nccc(C(=O)NCC(=O)N4CSC[C@H]4C#N)c3c2)C1 [US20230312550, Example 161] | 0.00028
N#C[C@@H]1CSCN1C(=O)CNC(=O)c1ccnc2ccc(N3CCC4(CCOCC4)CC3)cc12 [US20230312550, Example 162] | 2.8e-05
N#C[C@@H]1CSCN1C(=O)CNC(=O)c1ccnc2ccc(N3CC4(COC4)C3)cc12 [US20230312550, Example 166] | 4.9e-05
C[C@]1(O)CCN(c2ccc3nccc(C(=O)NCC(=O)N4CSC[C@H]4C#N)c3c2)C1 [US20230312550, Example 168] | 4.8e-05

Other lines, results leading:

koff [s⁻¹] | SMILES
5.7e-05 | N#C[C@@H]1CSCN1C(=O)CNC(=O)c1ccnc2ccc(N3CC(F)(C(F)(F)F)C3)cc12 [US20230312550, Example 143]
0.00051 | N#C[C@@H]1CSCN1C(=O)CNC(=O)c1ccnc2ccc(N3CC(CC(F)F)C3)cc12 [US20230312550, Example 144]
0.00017 | N#C[C@@H]1CSCN1C(=O)CNC(=O)c1ccnc2ccc(N3CC(CCF)C3)cc12 [US20230312550, Example 146]
0.00012 | CC(F)(F)C1CN(c2ccc3nccc(C(=O)NCC(=O)N4CSC[C@H]4C#N)c3c2)C1 [US20230312550, Example 147]
0.0002 | CC(C)C1CN(c2ccc3nccc(C(=O)NCC(=O)N4CSC[C@H]4C#N)c3c2)C1 [US20230312550, Example 148]
5.4e-05 | CCC1(O)CN(c2ccc3nccc(C(=O)NCC(=O)N4CSC[C@H]4C#N)c3c2)C1 [US20230312550, Example 154]
0.00012 | N#C[C@@H]1CSCN1C(=O)CNC(=O)c1ccnc2ccc(N3CC(F)(CF)C3)cc12 [US20230312550, Example 157]
0.00029 | N#C[C@@H]1CSCN1C(=O)CNC(=O)c1ccnc2ccc(N3CC(CC(F)(F)F)C3)cc12 [US20230312550, Example 158]
9.2e-05 | C[C@H]1N(c2ccc3nccc(C(=O)NCC(=O)N4CSC[C@H]4C#N)c3c2)CC1(F)F [US20230312550, Example 159]
7.4e-05 | N#C[C@@H]1CSCN1C(=O)CNC(=O)c1ccnc2ccc(N3CC4C(C3)C4(F)F)cc12 (stereo not given in full) [US20230312550, Example 160]
3.6e-05 | N#C[C@@H]1CSCN1C(=O)CNC(=O)c1ccnc2ccc(N3CC4(CC4)C3)cc12 [US20230312550, Example 164]
6.3e-05 | CC1(O)CN(c2ccc3nccc(C(=O)NCC(=O)N4CSC[C@H]4C#N)c3c2)C1 [US20230312550, Example 165]
0.00096 | N#C[C@@H]1CSCN1C(=O)CNC(=O)c1ccnc2ccc(-c3ccc(C(F)F)nc3)cc12 [US20230312550, Example 169]
0.00024 | Cn1nccc1-c1ccc2nccc(C(=O)NCC(=O)N3CSC[C@H]3C#N)c2c1 [US20230312550, Example 174]
0.00022 | N#C[C@@H]1CSCN1C(=O)CNC(=O)c1ccnc2ccc(-c3ccnn3[C@H]3CCCCO3)cc12 [US20230312550, Example 176]

Same assay, conditions: read-out: kon (M-1-s-1)

SMILES | kon [M⁻¹ s⁻¹]
N#C[C@@H]1CSCN1C(=O)CNC(=O)c1ccnc2ccc(N3CC4(CCCC4(F)F)C3)cc12 [US20230312550, Example 141] | 1.4e+06
N#C[C@@H]1CSCN1C(=O)CNC(=O)c1ccnc2ccc(N3CC(CCC(F)(F)F)C3)cc12 [US20230312550, Example 142] | 1.8e+06
N#C[C@@H]1CSCN1C(=O)CNC(=O)c1ccnc2ccc(N3CC(C4CC4)C3)cc12 [US20230312550, Example 145] | 4.5e+06
CC1CC2(C1)CN(c1ccc3nccc(C(=O)NCC(=O)N4CSC[C@H]4C#N)c3c1)C2 [US20230312550, Example 149] | 4.8e+06
N#C[C@@H]1CSCN1C(=O)CNC(=O)c1ccnc2ccc(N3CC4(CC(C(F)(F)F)C4)C3)cc12 [US20230312550, Example 150] | 280000
N#C[C@@H]1CSCN1C(=O)CNC(=O)c1ccnc2ccc(N3CC4(CC(F)C4)C3)cc12 [US20230312550, Example 155] | 3.1e+06
CO[C@@H]1CCN(c2ccc3nccc(C(=O)NCC(=O)N4CSC[C@H]4C#N)c3c2)C1 [US20230312550, Example 161] | 1.4e+07
N#C[C@@H]1CSCN1C(=O)CNC(=O)c1ccnc2ccc(N3CCC4(CCOCC4)CC3)cc12 [US20230312550, Example 162] | 1.9e+06
N#C[C@@H]1CSCN1C(=O)CNC(=O)c1ccnc2ccc(N3CC4(COC4)C3)cc12 [US20230312550, Example 166] | 2.2e+06
C[C@]1(O)CCN(c2ccc3nccc(C(=O)NCC(=O)N4CSC[C@H]4C#N)c3c2)C1 [US20230312550, Example 168] | 1.6e+06

Next, values leading:

kon [M⁻¹ s⁻¹] | SMILES
1.6e+06 | N#C[C@@H]1CSCN1C(=O)CNC(=O)c1ccnc2ccc(N3CC(F)(C(F)(F)F)C3)cc12 [US20230312550, Example 143]
9.1e+06 | N#C[C@@H]1CSCN1C(=O)CNC(=O)c1ccnc2ccc(N3CC(CC(F)F)C3)cc12 [US20230312550, Example 144]
1.4e+06 | N#C[C@@H]1CSCN1C(=O)CNC(=O)c1ccnc2ccc(N3CC(CCF)C3)cc12 [US20230312550, Example 146]
2.8e+06 | CC(F)(F)C1CN(c2ccc3nccc(C(=O)NCC(=O)N4CSC[C@H]4C#N)c3c2)C1 [US20230312550, Example 147]
6.6e+06 | CC(C)C1CN(c2ccc3nccc(C(=O)NCC(=O)N4CSC[C@H]4C#N)c3c2)C1 [US20230312550, Example 148]
910000 | CCC1(O)CN(c2ccc3nccc(C(=O)NCC(=O)N4CSC[C@H]4C#N)c3c2)C1 [US20230312550, Example 154]
1.9e+06 | N#C[C@@H]1CSCN1C(=O)CNC(=O)c1ccnc2ccc(N3CC(F)(CF)C3)cc12 [US20230312550, Example 157]
3.1e+06 | N#C[C@@H]1CSCN1C(=O)CNC(=O)c1ccnc2ccc(N3CC(CC(F)(F)F)C3)cc12 [US20230312550, Example 158]
2.1e+06 | C[C@H]1N(c2ccc3nccc(C(=O)NCC(=O)N4CSC[C@H]4C#N)c3c2)CC1(F)F [US20230312550, Example 159]
1.1e+06 | N#C[C@@H]1CSCN1C(=O)CNC(=O)c1ccnc2ccc(N3CC4C(C3)C4(F)F)cc12 (stereo not given in full) [US20230312550, Example 160]
1.4e+06 | N#C[C@@H]1CSCN1C(=O)CNC(=O)c1ccnc2ccc(N3CC4(CC4)C3)cc12 [US20230312550, Example 164]
1.2e+06 | CC1(O)CN(c2ccc3nccc(C(=O)NCC(=O)N4CSC[C@H]4C#N)c3c2)C1 [US20230312550, Example 165]
6.2e+06 | N#C[C@@H]1CSCN1C(=O)CNC(=O)c1ccnc2ccc(-c3ccc(C(F)F)nc3)cc12 [US20230312550, Example 169]
1.9e+06 | Cn1nccc1-c1ccc2nccc(C(=O)NCC(=O)N3CSC[C@H]3C#N)c2c1 [US20230312550, Example 174]
120000 | N#C[C@@H]1CSCN1C(=O)CNC(=O)c1ccnc2ccc(-c3ccnn3[C@H]3CCCCO3)cc12 [US20230312550, Example 176]
